Experimental data as given in ChEMBL document CHEMBL1949642 (Bioorg Med Chem Lett, 2012).
Values after ≈ are worked out from the molar mass of the structure shown. Active and inactive are the calls of the source. The rule behind the calls is not given here.

Legend:
[1] = Intrinsic clearance in human liver microsomes; conditions: liver microsomes
[2] = molecular target: T1, C-C chemokine receptor type 5 (Homo sapiens, UniProt P51681); assay: Antagonist activity at CCR5 in human whole blood assessed as inhibition of MIP-1beta-induced receptor internalization; assay type: functional, tissue-based
Target sequence in this assay (P51681 whole entry, looked up): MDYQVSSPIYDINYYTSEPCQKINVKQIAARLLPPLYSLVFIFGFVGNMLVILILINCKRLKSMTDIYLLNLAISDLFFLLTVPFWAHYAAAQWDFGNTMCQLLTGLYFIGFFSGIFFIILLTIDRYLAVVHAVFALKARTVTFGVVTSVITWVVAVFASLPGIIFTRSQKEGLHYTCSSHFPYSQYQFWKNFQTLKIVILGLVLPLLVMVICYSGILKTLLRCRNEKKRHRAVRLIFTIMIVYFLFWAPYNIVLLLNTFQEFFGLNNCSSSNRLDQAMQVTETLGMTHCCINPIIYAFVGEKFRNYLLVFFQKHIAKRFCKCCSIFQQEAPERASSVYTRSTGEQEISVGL

[3] = Lipophilicity, log D of the compound at pH 7.4; conditions: buffer
[4] = molecular target: T1, C-C chemokine receptor type 5; assay: Displacement of [125I]MIP-1alpha from human recombinant CCR5 expressed in CHO cells; assay type: cell-based
Target sequence in this assay (P51681 whole entry): as the sequence (P51681 whole entry, looked up) above

[5] = molecular target: Voltage-gated inwardly rectifying potassium channel KCNH2 (Homo sapiens, UniProt Q12809); assay: Displacement of 3,7-Bis[2-(4-nitro[3,5-3H]phenyl)ethyl]-3,7-diazabicyclo[3.3.1]nonane from human ERG expressed in HEK cells after 3 hrs
Chain of Voltage-gated inwardly rectifying potassium channel KCNH2 (Q12809 whole entry): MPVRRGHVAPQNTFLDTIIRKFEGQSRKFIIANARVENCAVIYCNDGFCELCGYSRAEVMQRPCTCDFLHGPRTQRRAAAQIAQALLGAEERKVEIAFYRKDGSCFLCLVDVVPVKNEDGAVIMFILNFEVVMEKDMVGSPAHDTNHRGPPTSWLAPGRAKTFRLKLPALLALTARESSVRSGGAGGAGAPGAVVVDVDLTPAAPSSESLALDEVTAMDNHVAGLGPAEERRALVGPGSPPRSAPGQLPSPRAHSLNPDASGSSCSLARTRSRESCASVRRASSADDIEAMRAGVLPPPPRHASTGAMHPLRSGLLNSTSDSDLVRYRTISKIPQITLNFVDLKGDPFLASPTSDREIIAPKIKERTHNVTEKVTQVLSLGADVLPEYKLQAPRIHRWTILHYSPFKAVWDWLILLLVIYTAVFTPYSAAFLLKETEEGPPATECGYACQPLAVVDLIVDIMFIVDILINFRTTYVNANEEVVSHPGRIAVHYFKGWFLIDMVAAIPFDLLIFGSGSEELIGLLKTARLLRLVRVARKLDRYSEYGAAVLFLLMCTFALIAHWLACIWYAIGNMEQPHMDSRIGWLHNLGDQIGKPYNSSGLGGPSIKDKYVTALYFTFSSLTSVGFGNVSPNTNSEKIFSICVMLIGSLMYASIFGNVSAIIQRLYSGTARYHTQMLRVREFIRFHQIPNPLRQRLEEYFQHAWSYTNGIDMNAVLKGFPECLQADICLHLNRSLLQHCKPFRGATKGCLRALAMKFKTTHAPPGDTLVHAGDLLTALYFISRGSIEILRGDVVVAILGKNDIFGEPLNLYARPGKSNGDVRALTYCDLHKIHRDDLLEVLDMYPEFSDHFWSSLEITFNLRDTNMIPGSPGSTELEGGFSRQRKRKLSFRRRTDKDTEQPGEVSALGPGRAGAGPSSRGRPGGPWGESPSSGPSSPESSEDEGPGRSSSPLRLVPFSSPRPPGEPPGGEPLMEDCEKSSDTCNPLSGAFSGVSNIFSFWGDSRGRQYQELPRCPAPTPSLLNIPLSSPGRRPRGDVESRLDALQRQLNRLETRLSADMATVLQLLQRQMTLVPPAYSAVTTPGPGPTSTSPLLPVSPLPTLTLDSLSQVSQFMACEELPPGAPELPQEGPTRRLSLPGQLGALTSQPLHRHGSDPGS

[6] = Clearance in rat at 1 to 2 mg/kg, iv; assay type: ADME, organism-based; set-up: dose 1-2 mg/kg, route intravenous; conditions: in vivo
[7] = Volume of distribution at steady state in rat at 1 to 2 mg/kg, iv; assay type: ADME, organism-based; set-up: dose 1-2 mg/kg, route intravenous; conditions: in vivo, read-out: Vdss
[8] = Half life in rat at 1 to 2 mg/kg, iv; assay type: ADME, organism-based; set-up: dose 1-2 mg/kg, route intravenous; conditions: in vivo
[9] = Oral bioavailability in rat at 2 to 5 mg/kg; assay type: ADME, organism-based; conditions: in vivo
[10] = Clearance in male dog at 1 to 2 mg/kg, iv; assay type: ADME, organism-based, Canis lupus familiaris; set-up: dose 1-2 mg/kg, route intravenous; conditions: in vivo
[11] = Volume of distribution at steady state in male dog at 1 to 2 mg/kg, iv; assay type: ADME, organism-based, Canis lupus familiaris; set-up: dose 1-2 mg/kg, route intravenous; conditions: in vivo, read-out: Vdss
[12] = Half life in male dog at 1 to 2 mg/kg, iv; assay type: ADME, organism-based, Canis lupus familiaris; set-up: dose 1-2 mg/kg, route intravenous; conditions: in vivo
[13] = Oral bioavailability in male dog at 2 to 5 mg/kg; assay type: ADME, organism-based, Canis lupus familiaris; conditions: in vivo
[14] = Clearance in female dog at 1 to 2 mg/kg, iv; assay type: ADME, organism-based, Canis lupus familiaris; set-up: dose 1-2 mg/kg, route intravenous; conditions: in vivo
[15] = Volume of distribution at steady state in female dog at 1 to 2 mg/kg, iv; assay type: ADME, organism-based, Canis lupus familiaris; set-up: dose 1-2 mg/kg, route intravenous; conditions: in vivo, read-out: Vdss
[16] = Half life in female dog at 1 to 2 mg/kg, iv; assay type: ADME, organism-based, Canis lupus familiaris; set-up: dose 1-2 mg/kg, route intravenous; conditions: in vivo
[17] = Oral bioavailability in female dog at 2 to 5 mg/kg; assay type: ADME, organism-based, Canis lupus familiaris; conditions: in vivo
[18] = Dissociation constant, pKa of the compound; assay type: physicochemical
[19] = Aqueous solubility of the compound at pH 7.4; assay type: physicochemical; conditions: buffer
[20] = molecular target: T2, Cytochrome P450 1A1 (Homo sapiens, UniProt P04798); assay: Inhibition of CYP1A1; assay type: ADME
T2 sequence (P04798 whole entry): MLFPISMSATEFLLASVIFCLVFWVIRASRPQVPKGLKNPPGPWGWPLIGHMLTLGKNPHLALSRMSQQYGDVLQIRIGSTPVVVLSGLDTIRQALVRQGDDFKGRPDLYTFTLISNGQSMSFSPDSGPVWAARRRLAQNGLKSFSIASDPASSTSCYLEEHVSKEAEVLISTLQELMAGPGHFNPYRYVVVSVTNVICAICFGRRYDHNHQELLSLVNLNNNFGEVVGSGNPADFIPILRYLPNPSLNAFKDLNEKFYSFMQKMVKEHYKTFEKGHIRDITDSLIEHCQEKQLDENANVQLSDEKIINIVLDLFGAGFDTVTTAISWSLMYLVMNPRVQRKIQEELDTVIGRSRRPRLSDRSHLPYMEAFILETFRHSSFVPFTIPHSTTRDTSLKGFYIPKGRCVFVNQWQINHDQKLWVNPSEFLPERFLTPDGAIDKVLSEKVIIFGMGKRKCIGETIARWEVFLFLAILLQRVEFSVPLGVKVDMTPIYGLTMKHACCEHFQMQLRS

[21] = molecular target: Cytochrome P450 2C9 (Homo sapiens, UniProt P11712); assay: Inhibition of CYP2C9; assay type: ADME
Chain of Cytochrome P450 2C9 (P11712 whole entry): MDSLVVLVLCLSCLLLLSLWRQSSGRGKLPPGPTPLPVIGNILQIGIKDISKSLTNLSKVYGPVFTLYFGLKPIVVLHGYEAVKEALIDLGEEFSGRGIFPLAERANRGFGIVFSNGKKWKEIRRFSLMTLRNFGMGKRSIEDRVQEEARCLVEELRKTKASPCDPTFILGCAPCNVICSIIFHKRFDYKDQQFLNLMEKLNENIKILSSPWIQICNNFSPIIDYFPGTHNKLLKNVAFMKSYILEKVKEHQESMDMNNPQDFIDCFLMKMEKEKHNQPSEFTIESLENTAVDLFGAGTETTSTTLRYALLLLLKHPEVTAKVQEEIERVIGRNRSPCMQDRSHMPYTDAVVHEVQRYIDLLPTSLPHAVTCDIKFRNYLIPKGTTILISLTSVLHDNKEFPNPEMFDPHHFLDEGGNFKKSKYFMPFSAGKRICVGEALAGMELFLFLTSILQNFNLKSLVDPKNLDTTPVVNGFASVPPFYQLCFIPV

[22] = molecular target: Cytochrome P450 2C19 (Homo sapiens, UniProt P33261); assay: Inhibition of CYP2C19; assay type: ADME
Chain of Cytochrome P450 2C19 (P33261 whole entry): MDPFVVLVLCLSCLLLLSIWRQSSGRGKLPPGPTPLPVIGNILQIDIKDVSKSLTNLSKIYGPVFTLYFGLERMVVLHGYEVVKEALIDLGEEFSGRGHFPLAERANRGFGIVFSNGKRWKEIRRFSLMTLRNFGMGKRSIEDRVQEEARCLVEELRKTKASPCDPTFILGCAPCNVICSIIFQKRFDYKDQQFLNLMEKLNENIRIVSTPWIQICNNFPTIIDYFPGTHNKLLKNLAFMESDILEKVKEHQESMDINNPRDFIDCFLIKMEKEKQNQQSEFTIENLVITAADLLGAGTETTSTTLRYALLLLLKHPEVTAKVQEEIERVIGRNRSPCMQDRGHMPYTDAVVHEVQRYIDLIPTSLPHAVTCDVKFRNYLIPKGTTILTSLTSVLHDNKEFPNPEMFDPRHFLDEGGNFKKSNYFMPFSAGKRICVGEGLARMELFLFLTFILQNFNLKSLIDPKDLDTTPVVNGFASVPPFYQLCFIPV

[23] = molecular target: Cytochrome P450 2D6 (Homo sapiens, UniProt P10635); assay: Inhibition of CYP2D6; assay type: ADME
Chain of Cytochrome P450 2D6 (P10635 whole entry): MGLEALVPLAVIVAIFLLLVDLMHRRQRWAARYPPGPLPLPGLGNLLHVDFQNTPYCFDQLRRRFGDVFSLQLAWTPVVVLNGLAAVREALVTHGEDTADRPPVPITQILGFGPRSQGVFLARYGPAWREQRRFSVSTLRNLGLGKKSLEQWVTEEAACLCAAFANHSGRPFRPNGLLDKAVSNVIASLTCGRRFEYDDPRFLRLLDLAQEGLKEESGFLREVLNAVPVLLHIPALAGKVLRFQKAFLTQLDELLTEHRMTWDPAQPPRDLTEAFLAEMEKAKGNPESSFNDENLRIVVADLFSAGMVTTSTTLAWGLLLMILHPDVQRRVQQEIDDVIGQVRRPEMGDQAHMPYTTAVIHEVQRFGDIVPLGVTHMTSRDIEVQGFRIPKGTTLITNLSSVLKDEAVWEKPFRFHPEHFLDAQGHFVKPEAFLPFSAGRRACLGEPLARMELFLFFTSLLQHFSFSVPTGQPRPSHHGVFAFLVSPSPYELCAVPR

[24] = molecular target: Cytochrome P450 3A4 (Homo sapiens, UniProt P08684); assay: Inhibition of CYP3A4; assay type: ADME
Chain of Cytochrome P450 3A4 (P08684 whole entry): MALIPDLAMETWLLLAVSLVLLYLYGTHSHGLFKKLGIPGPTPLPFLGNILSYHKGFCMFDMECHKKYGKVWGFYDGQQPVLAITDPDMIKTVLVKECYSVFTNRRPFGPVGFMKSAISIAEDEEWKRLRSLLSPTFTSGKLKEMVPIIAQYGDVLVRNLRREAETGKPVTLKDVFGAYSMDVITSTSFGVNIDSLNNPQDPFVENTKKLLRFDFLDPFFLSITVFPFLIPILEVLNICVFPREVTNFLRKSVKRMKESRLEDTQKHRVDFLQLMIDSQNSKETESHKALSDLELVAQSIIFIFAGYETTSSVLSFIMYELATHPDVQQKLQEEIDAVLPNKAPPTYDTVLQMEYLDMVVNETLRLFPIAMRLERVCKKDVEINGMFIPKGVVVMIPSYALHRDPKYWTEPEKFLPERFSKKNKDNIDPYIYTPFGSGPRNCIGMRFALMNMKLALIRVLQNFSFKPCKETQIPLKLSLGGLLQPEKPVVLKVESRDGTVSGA

[25] = Apparent permeability from apical to basal side of human Caco2 cells at 10 uM; assay type: ADME, cell-based; conditions: Caco-2
[26] = Apparent permeability from basal to apical side of human Caco2 cells at 10 uM; assay type: ADME, cell-based; conditions: Caco-2
[27] = Apparent permeability from apical to basal side of human Caco2 cells at 100 uM; assay type: ADME, cell-based; conditions: Caco-2
[28] = Apparent permeability from basal to apical side of human Caco2 cells at 100 uM; assay type: ADME, cell-based; conditions: Caco-2
[29] = Fraction unbound in human plasma; assay type: ADME, cell-free
[30] = species on record: Homo sapiens; assay: Antiarthritis activity in rheumatoid arthritis patient at 150 mg; assay type: functional, organism-based
[31] = Plasma protein binding in human; assay type: ADME, cell-free; conditions: read-out: PPB (converted)

Structure (SMILES): CCN(C(=O)Cc1ccc(S(C)(=O)=O)cc1)C1CCN(CC[C@H](c2ccc(S(C)(=O)=O)cc2)c2cc(F)cc(F)c2)CC1
- microsomal CLint [1]: 8 µL/min/mg
- A2 [2]: 1.1 nM

Structure (SMILES): CCN(C(=O)Cc1ccc(S(C)(=O)=O)cc1)C1CCN(CCC(c2ccccc2)N2CCN(C)CC2)CC1 (racemic)
- logD [3]: 0.9

Structure (SMILES): CCN(C(=O)Cc1ccc(S(C)(=O)=O)cc1)C1CCN(CCC(c2ccccc2)N2CCN(c3ccccc3)CC2)CC1 (racemic)
- IC50 [4]: 5 nM
- microsomal CLint [1]: 26 µL/min/mg
- IC50 [5]: 13000 nM
- logD [3]: 2.7

Structure (SMILES): CCN(C(=O)Cc1ccc(S(C)(=O)=O)cc1)C1CCN(CCC(c2ccccc2)N2CCN(c3cccc(F)c3)CC2)CC1 (racemic)
- IC50 [4]: 3.1 nM
- microsomal CLint [1]: 22 µL/min/mg
- IC50 [5]: 3200 nM
- logD [3]: 3.2

Structure (SMILES): CCN(C(=O)Cc1ccc(S(C)(=O)=O)cc1)C1CCN(CCC(c2ccccc2)N2CCN(C(C)=O)CC2)CC1 (racemic)
- IC50 [4]: 229 nM
- logD [3]: 0.9

Structure (SMILES): CCN(C(=O)Cc1ccc(S(C)(=O)=O)cc1)C1CCN(CCC(c2ccccc2)N2CCN(S(C)(=O)=O)CC2)CC1 (racemic)
- IC50 [4]: 39 nM
- microsomal CLint [1]: < 3 µL/min/mg
- logD [3]: 0.8

Structure (SMILES): CCN(C(=O)Cc1ccc(S(C)(=O)=O)cc1)C1CCN(CCC(c2ccccc2)N2CCN(S(=O)(=O)CC)CC2)CC1 (racemic)
- IC50 [4]: 15 nM
- microsomal CLint [1]: 52 µL/min/mg
- logD [3]: 1

Structure (SMILES): CCN(C(=O)Cc1ccc(S(C)(=O)=O)cc1)C1CCN(CCC(c2ccccc2)N2CCC(C)CC2)CC1 (racemic)
- IC50 [4]: 339 nM
- logD [3]: 2

Structure (SMILES): CCN(C(=O)Cc1ccc(S(C)(=O)=O)cc1)C1CCN(CCC(c2ccccc2)N2CCC(Cc3ccccc3)CC2)CC1 (racemic)
- IC50 [4]: 162 nM
- logD [3]: 3.7

Structure (SMILES): CCN(C(=O)Cc1ccc(S(C)(=O)=O)cc1)C1CCN(CCC(c2ccccc2)N2CCC(C(C)=O)CC2)CC1 (racemic)
- IC50 [4]: 83 nM
- microsomal CLint [1]: 21 µL/min/mg
- logD [3]: 0.9

Structure (SMILES): CCN(C(=O)Cc1ccc(S(C)(=O)=O)cc1)C1CCN(CCC(c2ccccc2)C2CCN(C)CC2)CC1 (racemic)
- IC50 [4]: 126 nM
- logD [3]: 1

Structure (SMILES): CCN(C(=O)Cc1ccc(S(C)(=O)=O)cc1)C1CCN(CCC(c2ccccc2)C2CCN(Cc3ccccc3)CC2)CC1 (racemic)
- IC50 [4]: 8.9 nM
- microsomal CLint [1]: > 150 µL/min/mg

Structure (SMILES): CCN(C(=O)Cc1ccc(S(C)(=O)=O)cc1)C1CCN(CCC(c2ccccc2)C2CCN(C(C)=O)CC2)CC1 (racemic)
- IC50 [4]: 37 nM
- logD [3]: 1.4

Structure (SMILES): CCN(C(=O)Cc1ccc(S(C)(=O)=O)cc1)C1CCN(CCC(c2ccccc2)C2CCN(S(=O)(=O)CC)CC2)CC1 (racemic)
- IC50 [4]: 2.4 nM
- microsomal CLint [1]: 61 µL/min/mg
- logD [3]: 1.6

Structure (SMILES): CCN(C(=O)Cc1ccc(S(C)(=O)=O)cc1)C1CCN(CC[C@@H](c2cc(F)cc(F)c2)C2CCN(S(C)(=O)=O)CC2)CC1 [AZD5672]
- IC50 [4]: 0.26 nM
- microsomal CLint [1]: 18 µL/min/mg
- logD [3]: 1.5
- clearance [6]: 38 mL/min/kg
- Vd [7]: 5 L/kg
- half-life [8]: 2.1 h
- bioavailability [9]: 41%
- clearance [10]: 15 mL/min/kg
- Vd [11]: 4.5 L/kg
- half-life [12]: 3.9 h
- bioavailability [13]: 46%
- clearance [14]: 22 mL/min/kg
- Vd [15]: 5.8 L/kg
- half-life [16]: 3.8 h
- bioavailability [17]: 51%
- A2 [2]: 0.76 nM
- pKa [18]: 8.4
- solubility [19]: 2700 µM (≈ 1730 µg/mL)
- IC50 [20]: > 50000 nM
- IC50 [21]: > 50000 nM
- IC50 [22]: > 50000 nM
- IC50 [23]: 23000 nM
- IC50 [24]: 9000 nM
- Papp A→B at 10 µM [25]: 0.7 ×10⁻⁶ cm/s
- Papp B→A at 10 µM [26]: 9.2 ×10⁻⁶ cm/s
- Papp A→B at 100 µM [27]: 1.4 ×10⁻⁶ cm/s
- Papp B→A at 100 µM [28]: 11 ×10⁻⁶ cm/s
- fraction unbound [29]: 0.08
- Activity [30]: inactive
- fraction unbound [31]: 0.08
